{
  "source": "patent US11098010B2",
  "about": "(priority 2017, dated 2021)",
  "test_system": "HBV rcDNA in HepDE19 cells",
  "assay": "HepDE19 assay with bDNA quantitation of HBV rcDNA",
  "type": "cell-based, hepatitis B virus (HBV)",
  "description": "HepDE19 Assay with bDNA Quantitation of HBV rcDNA:\nHepDE19 cell culture system is a HepG2 (human hepatocarcinoma) derived cell line that supports HBV DNA replication and cccDNA formation in a tetracycline (Tet)-regulated manner and produces HBV rcDNA and a detectable reporter molecule dependent on the production and maintenance of cccDNA (Guo, et al., 2007, J. Virol. 81:12472-12484).\nHepDE19 (50,000 cells/well) were plated in 96-well collagen-coated tissue-culture treated microtiter plates in DMEM/F12 medium supplemented with 10% fetal bovine serum, 1% penicillin-streptomycin and 1 μg/mL tetracycline and incubated in a humidified incubator at 37° C. and 5% CO2 overnight. Next day, the cells were switched to fresh medium without tetracycline and incubated for 4 hours at 37° C. and 5% CO2. The cells were treated with fresh Tet-free medium with compounds at concentrations starting at 25 μM and a serial, ½ log, 8-point, titration series in duplicate. The final DMSO concentration in the assay was 0.5%. The plates were incubated for 7 days in a humidified incubator at 37° C. and 5% CO2. Following a 7 day-incubation, the level of rcDNA present in the inhibitor-treated wells was measured using a Quantigene 2.0 bDNA assay kit (Affymetrix, Santa Clara, Calif.) with HBV specific custom probe set and manufacturers instructions. Concurrently, the effect of compounds on cell viability was assessed using replicate plates, plated at a density of 5,000 cells/well and incubated for 4 days, to determine the ATP content as a measure of cell viability using the cell-titer glo reagent (CTG; Promega Corporation, Madison, Wis.) as per manufacturer's instructions. The plates were read using a Victor luminescence plate reader (PerkinElmer Model 1420 Multilabel counter) and the relative luminescence units (RLU) data generated from each well was calculated as % inhibition of the untreated control wells and analyzed using XL-Fit module in Microsoft Excel to determine EC50 and EC90 (bDNA) and CC50 (CTG) values using a 4-parameter curve fitting algorithm.\nRepresentative compounds of the invention were tested for their abilities to inhibit formation of relaxed circular DNA (rcDNA) in a HepDE19 assay, as described elsewhere herein.",
  "key": {"[1]": {"settings": "HepDE19 cells, inhibition of rcDNA formation, 7 day incubation, top concentration 25 μM; read-out: DE-19 bDNA EC50"}, "[2]": {"settings": "Hepatitis B virus, HepDE19, 168 h, read-out: DE-19 bDNA EC50 (μM), HepDE19 cells, inhibition of rcDNA formation, 7 day incubation, top concentration 25 μM"}, "[3]": {"settings": "Hepatitis B virus, HepDE19, 168 h, HepDE19 cells, inhibition of rcDNA formation, 7 day incubation, top concentration 25 μM; read-out: DE-19 bDNA EC50"}, "[4]": {"settings": "read-out: DE-19 bDNA EC50; HepDE19 cells, inhibition of rcDNA formation, 7 day incubation, top concentration 25 μM"}},
  "note": "pEC50: −log10 of the molar value. Counter-ions that a name gives are not always drawn. Like-named read-outs stand apart in the source and are kept apart here.",
  "data": [
    {"smiles": "O=C(N[C@H]1CCc2c(C(=O)Nc3ccc(F)c(Cl)c3)ccc(F)c21)OCc1nnco1", "note": "[Compound 231, O-(1,3,4-oxadiazol-2-yl)methyl, N-(S)-(4-((3-chloro-4-fluorophenyl)carbamoyl)-7-fluoro-2,3-dihydro-1H-inden-1-yl) carbamate]", "values": [
      {"measurement": "pEC50", "setting": "[1]", "value": 6.89}
    ]},
    {"smiles": "O=C(NC1CSc2c(C(=O)Nc3ccc(F)c(Cl)c3)ccc(F)c21)OCc1ccccn1", "note": "(stereo not drawn) [Compound 65, O-Pyridin-2-ylmethyl, N-(7-((3-chloro-4-fluorophenyl)carbamoyl)-4-fluoro-2,3-dihydrobenzo[b]thiophen-3-yl) carbamate]", "values": [
      {"measurement": "pEC50", "setting": "[1]", "value": "< 4.60"}
    ]},
    {"smiles": "C[C@H](OC(=O)N[C@H]1CCc2c(C(=O)Nc3ccc(F)c(Cl)c3)ccc(F)c21)c1ccccn1", "note": "[Compound 68, O—(S)-1-(Pyridin-2-yl)ethyl, N—((S)-4-((3-chloro-4-fluorophenyl)carbamoyl)-7-fluoro-2,3-dihydro-1H-inden-1-yl) carbamate]", "values": [
      {"measurement": "EC50", "setting": "[2]", "value": 0.39, "unit": "µM"}
    ]},
    {"smiles": "O=C(N[C@H]1CCc2c(C(=O)Nc3ccc(F)c(F)c3)cccc21)OCc1ccccn1", "note": "[Compound 3, O-Pyridin-2-ylmethyl, N—(S)-(4-((3,4-difluorophenyl)carbamoyl)-2,3-dihydro-1H-inden-1-yl) carbamate]", "values": [
      {"measurement": "pEC50", "setting": "[3]", "value": 6.30}
    ]},
    {"smiles": "O=C1CCC[C@@H](COC(=O)N[C@H]2CCc3c(C(=O)Nc4ccc(F)c(Cl)c4)ccc(F)c32)N1", "note": "[Compound 212, O—((S)-6-Oxopiperidin-2-yl)methyl, N—((S)-4-((3-chloro-4-fluorophenyl)carbamoyl)-7-fluoro-2,3-dihydro-1H-inden-1-yl) carbamate]", "values": [
      {"measurement": "EC50", "setting": "[2]", "value": 0.27, "unit": "µM"}
    ]},
    {"smiles": "O=C(Nc1ccc(F)c(Cl)c1)c1cccc2c1CC[C@@H]2NS(=O)(=O)NC1CC1", "note": "[Compound 242, (S)-N-(3-chloro-4-fluorophenyl)-1-((N-cyclopropylsulfamoyl)amino)-2,3-dihydro-1H-indene-4-carboxamide]", "values": [
      {"measurement": "pEC50", "setting": "[3]", "value": 6.24}
    ]},
    {"smiles": "O=C(NC1CSc2c(C(=O)Nc3ccc(F)c(F)c3)cccc21)OCc1ccccn1", "note": "(single isomer, unassigned) [Compound 33, O-Pyridin-2-ylmethyl, N-(7-((3,4-difluorophenyl)carbamoyl)-2,3-dihydrobenzo[b]thiophen-3-yl) carbamate hydrochloride]", "values": [
      {"measurement": "pEC50", "setting": "[3]", "value": 5.96}
    ]},
    {"smiles": "COC(=O)NC1CSc2c(C(=O)Nc3ccc(F)c(Cl)c3)cccc21", "note": "(stereo not drawn) [Compound 37, O-Methyl, N-(7-((3-chloro-4-fluorophenyl)carbamoyl)-2,3-dihydrobenzo[b]thiophen-3-yl) carbamate]", "values": [
      {"measurement": "EC50", "setting": "[2]", "value": 0.95, "unit": "µM"}
    ]},
    {"smiles": "O=C(Nc1ccc(F)c(Cl)c1)c1ccc(F)c2c1CCC21NC(=O)N(Cc2ccccn2)C1=O", "note": "(stereo not drawn) [Compound 259, N-(3-chloro-4-fluoro-phenyl)-7′-fluoro-2,5-dioxo-1-(2-pyridylmethyl) spiro[imidazolidine-4,1′-indane]-4′-carboxamide]", "values": [
      {"measurement": "pEC50", "setting": "[1]", "value": 5.54}
    ]},
    {"smiles": "O=C(NC1CCc2c(C(=O)Nc3ccc(F)c(Cl)c3)ccnc21)OCc1ccccn1", "note": "(stereo not drawn) [Compound 265, O-pyridin-2-ylmethyl, N-(4-((3-chloro-4-fluorophenyl)carbamoyl)-6,7-dihydro-5H-cyclopenta[b]pyridin-7-yl) carbamate]", "values": [
      {"measurement": "pEC50", "setting": "[1]", "value": 6.27}
    ]},
    {"smiles": "O=C(N[C@H]1CCc2c(C(=O)Nc3ccc(F)c(Cl)c3)ccc(F)c21)OCc1nccs1", "note": "[Compound 92, O-Thiazol-2-ylmethyl, N—(S)-(4-((3-chloro-4-fluorophenyl)carbamoyl)-7-fluoro-2,3-dihydro-1H-inden-1-yl) carbamate]", "values": [
      {"measurement": "pEC50", "setting": "[3]", "value": 6.74}
    ]},
    {"smiles": "O=C(N[C@H]1CCc2c(C(=O)Nc3ccc(F)c(Cl)c3)ccc(F)c21)OC1CCOCC1", "note": "[Compound 113, O-Tetrahydro-2H-pyran-4-yl, N—(S)-(4-((3-chloro-4-fluorophenyl)carbamoyl)-7-fluoro-2,3-dihydro-1H-inden-1-yl) carbamate]", "values": [
      {"measurement": "EC50", "setting": "[2]", "value": 0.31, "unit": "µM"}
    ]},
    {"smiles": "CNC(=O)NC1c2cccc(C(=O)Nc3ccc(F)c(F)c3)c2CC1O", "note": "(stereo not drawn) [Compound 53, N-(3,4-difluorophenyl)-2-hydroxy-1-(3-methylureido)-2,3-dihydro-1H-indene-4-carboxamide]", "values": [
      {"measurement": "pEC50", "setting": "[3]", "value": "< 4.60"}
    ]},
    {"smiles": "CN1Cc2c(C(=O)Nc3ccc(F)c(Cl)c3)cccc2S1(=O)=O", "note": "[Compound 277, N-(3-Chloro-4-fluorophenyl)-2-methyl-2,3-dihydrobenzo[d]isothiazole-4-carboxamide 1,1-dioxide]", "values": [
      {"measurement": "pEC50", "setting": "[3]", "value": 5.66}
    ]},
    {"smiles": "COC(=O)NC1COc2c(C(=O)Nc3ccc(F)c(F)c3)cccc21", "note": "(stereo not drawn) [Compound 5, O-Methyl, N-(7-((3,4-difluorophenyl)carbamoyl)-2,3-dihydrobenzofuran-3-yl) carbamate]", "values": [
      {"measurement": "pEC50", "setting": "[4]", "value": 4.85}
    ]},
    {"smiles": "CC(C)n1nccc1COC(=O)N[C@H]1CCc2c(C(=O)Nc3ccc(F)c(Cl)c3)ccc(F)c21", "note": "[Compound 106, O-(1-Isopropyl-1H-pyrazol-5-yl)methyl, N—(S)-(4-((3-chloro-4-fluorophenyl)carbamoyl)-7-fluoro-2,3-dihydro-1H-inden-1-yl) carbamate]", "values": [
      {"measurement": "pEC50", "setting": "[1]", "value": 6.77}
    ]},
    {"smiles": "O=C(N[C@H]1CCc2c(C(=O)Nc3ccc(F)c(Cl)c3)ccc(F)c21)OCc1ccccn1", "note": "[Compound 32, O-Pyridin-2-ylmethyl, N—(S)-(4-((3-chloro-4-fluorophenyl)carbamoyl)-7-fluoro-2,3-dihydro-1H-inden-1-yl) carbamate]", "values": [
      {"measurement": "pEC50", "setting": "[3]", "value": 6.96}
    ]},
    {"smiles": "CC(C)NS(=O)(=O)N[C@H]1CCc2c(C(=O)Nc3ccc(F)c(Cl)c3)ccc(F)c21", "note": "[Compound 237, (S)-N-(3-chloro-4-fluorophenyl)-7-fluoro-1-((N-isopropylsulfamoyl)amino)-2,3-dihydro-1H-indene-4-carboxamide]", "values": [
      {"measurement": "pEC50", "setting": "[3]", "value": 6.24}
    ]},
    {"smiles": "O=C(N[C@H]1CCc2c(C(=O)Nc3ccc(F)c(Cl)c3)ccc(F)c21)OCc1ccc(F)cn1", "note": "[Compound 109, O-(5-Fluoropyridin-2-yl)methyl, N—(S)-(4-((3-chloro-4-fluorophenyl)carbamoyl)-7-fluoro-2,3-dihydro-1H-inden-1-yl) carbamate]", "values": [
      {"measurement": "EC50", "setting": "[2]", "value": 0.27, "unit": "µM"}
    ]},
    {"smiles": "COC(=O)NC1c2c(F)ccc(C(=O)Nc3ccc(F)c(Cl)c3)c2CC1(C)C", "note": "(stereo not drawn) [Compound 121, O-Methyl, N-(4-((3-chloro-4-fluorophenyl)carbamoyl)-7-fluoro-2,2-dimethyl-2,3-dihydro-1H-inden-1-yl) carbamate]", "values": [
      {"measurement": "pEC50", "setting": "[1]", "value": "< 4.60"}
    ]},
    {"smiles": "Cn1ccc(COC(=O)N[C@H]2CCc3c(C(=O)Nc4ccc(F)c(Cl)c4)ccc(F)c32)n1", "note": "[Compound 71, O-(1-Methyl-1H-pyrazol-3-yl)methyl, N—(S)-(4-((3-chloro-4-fluorophenyl)carbamoyl)-7-fluoro-2,3-dihydro-1H-inden-1-yl) carbamate]", "values": [
      {"measurement": "pEC50", "setting": "[3]", "value": 7.22}
    ]},
    {"smiles": "COC(=O)NC1CSc2c(C(=O)Nc3ccc(F)c(Cl)c3)ccc(F)c21", "note": "(stereo not drawn) [Compound 59, O-Methyl, N-(7-((3-chloro-4-fluorophenyl)carbamoyl)-4-fluoro-2,3-dihydrobenzo[b]thiophen-3-yl) carbamate]", "values": [
      {"measurement": "pEC50", "setting": "[4]", "value": 4.92}
    ]},
    {"smiles": "O=C(N[C@H]1CCc2c(C(=O)Nc3ccc(F)c(Cl)c3)ccc(F)c21)OC[C@@H]1CCCN1CC(F)(F)F", "note": "[Compound 108, O-[(2S)-1-(2,2,2-Trifluoroethyl)pyrrolidin-2-yl]methyl, N-[(1S)-4-[(3-chloro-4-fluorophenyl)carbamoyl]-7-fluoro-2,3-dihydro-1H-inden-1-yl]carbamate Hydrochloride]", "values": [
      {"measurement": "EC50", "setting": "[2]", "value": 0.72, "unit": "µM"}
    ]},
    {"smiles": "COc1ccc(COC(=O)N[C@H]2CCc3c(C(=O)Nc4ccc(F)c(Cl)c4)ccc(F)c32)nc1", "note": "[Compound 107, O-(5-Methoxypyridin-2-yl)methyl, N—(S)-(4-((3-chloro-4-fluorophenyl)carbamoyl)-7-fluoro-2,3-dihydro-1H-inden-1-yl) carbamate Hydrochloride]", "values": [
      {"measurement": "EC50", "setting": "[2]", "value": 1.2, "unit": "µM"}
    ]},
    {"smiles": "O=C(N[C@H]1CCc2c(C(=O)Nc3ccc(F)c(Cl)c3)ccc(F)c21)OC1CCC(O)CC1", "note": "(stereo partly drawn) [Compound 154, O-cis-4-Hydroxycyclohexyl, N—((S)-4-((3-chloro-4-fluorophenyl)carbamoyl)-7-fluoro-2,3-dihydro-1H-inden-1-yl) carbamate]", "values": [
      {"measurement": "pEC50", "setting": "[3]", "value": 6.46}
    ]},
    {"smiles": "O=C(Nc1ccc(F)c(Cl)c1)c1ccc(F)c2c1CC[C@@H]2Nc1ncccn1", "note": "[Compound 45, (S)—N-(3-chloro-4-fluorophenyl)-7-fluoro-1-(pyrimidin-2-ylamino)-2,3-dihydro-1H-indene-4-carboxamide]", "values": [
      {"measurement": "EC50", "setting": "[2]", "value": 0.25, "unit": "µM"}
    ]},
    {"smiles": "O=C(N[C@H]1CCc2c(C(=O)Nc3ccc(F)c(Cl)c3)ccc(F)c21)c1ccncc1", "note": "[Compound 120, (S)—N-(4-((3-Chloro-4-fluorophenyl)carbamoyl)-7-fluoro-2,3-dihydro-1H-inden-1-yl)isonicotinamide]", "values": [
      {"measurement": "pEC50", "setting": "[3]", "value": 6.62}
    ]}
  ]
}
